Test results: patent US10563263B2, “Genetic polymorphisms associated with statin response and cardiovascular diseases, methods of detection and uses thereof” (CELERA CORPORATION, priority 2010, dated 2020)

System: CHD or CVD
Assay: WOSCOPS: SNP by pravastatin treatment interaction, logistic regression (synergy index), cohort source; End-point (CHD or CVD) of the marker not given
Assay type: in vivo, human

**Q.** What does the source list for CC[C@H](C)C(=O)O[C@H]1C[C@H](O)C=C2C=C[C@H](C)[C@H](CC[C@@H](O)C[C@@H](O)CC(=O)O)[C@H]21 [Pravastatin, pravastatin]?
**A.** OR (marker rs1068705, pravastatin vs placebo): 0.74; OR (marker rs1564078, pravastatin vs placebo): 0.79; OR (marker rs9557509, pravastatin vs placebo): 1.42; OR (marker rs10802865, pravastatin vs placebo): 1.16; OR (marker rs11668038, pravastatin vs placebo): 1.25; OR (marker rs17035071, pravastatin vs placebo): 1.22
